Measured values as given in PubChem BioAssay (NCI).
Values joined by “and” are separate entries in the source; they are usually repeats but may differ in a detail not shown here. Equal values may be shown once.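 Method: 48-hour compound exposure of cells in 96-well plates, five concentrations, linear interpolation of endpoints. GI50 is the concentration that inhibits growth by half. TGI: total growth inhibition.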 Where a SMILES comes first, the peptide text is derived from it. The star is where a group is joined. Boc = CC(C)(C)OC(=O)*

What was measured:
Experiment in all cases: growth of human tumour cells (NCI), 48 h
[1] = test system: DU-145 prostate
[2] = test system: UO-31 renal
[3] = test system: OVCAR-3 ovarian
[4] = test system: CAKI-1 renal
[5] = test system: NCI/ADR-RES ovarian
[6] = test system: TK-10 renal
[7] = test system: OVCAR-4 ovarian
[8] = test system: UACC-62 melanoma

Structure (SMILES)	TGI [1]	TGI [2]	TGI [3]	TGI [4]	TGI [5]	TGI [6]	TGI [7]	TGI [8]	GI50 [3]	GI50 [5]	GI50 [8]
C=C(Br)CNC(=O)CCC(=O)NCC(=C)Br	> 100 µM	> 100 µM	> 100 µM	> 100 µM	> 100 µM	> 100 µM	> 100 µM	> 100 µM			
COc1ccc2nc(-c3ccc(O)cc3)sc2c1	> 100 µM	30.1 µM	36.2 µM	57.5 µM	72.6 µM	70.2 µM	44.5 µM	42.9 µM			
O=C1CC(c2ccccc2)n2cccc21 (configuration not stated)	> 100 µM	> 100 µM	> 100 µM	> 100 µM	> 100 µM	> 100 µM	> 100 µM	> 100 µM			
BrC(c1cccc2ccccc12)c1cccc2ccccc12	26.4 µM	> 100 µM	24.2 µM	50.1 µM	44.2 µM	> 100 µM	36.1 µM	27.7 µM			
COC(=O)C(Cc1c[nH]c2ccccc12)NC(=O)C(Cc1c[nH]c2ccccc12)NC(=O)C(Cc1c[nH]c2ccccc12)NC(=O)C(Cc1c[nH]c2ccccc12)NC(=O)C(Cc1c[nH]c2ccccc12)NC(=O)C(Cc1c[nH]c2ccccc12)NC(=O)C(Cc1c[nH]c2ccccc12)NC(=O)C(Cc1c[nH]c2ccccc12)NC(=O)OC(C)(C)C (configuration not stated) (Boc-WWWWWWWW-OMe; configuration not given here)	> 100 µM	> 100 µM	> 100 µM	> 100 µM		> 100 µM	> 100 µM	> 100 µM			
COc1ccccc1C(=O)c1c(NCc2ccccc2)c(=O)c1=O	> 100 µM	> 100 µM	> 100 µM	> 100 µM	> 100 µM	> 100 µM	> 100 µM	> 100 µM			
COc1cc(Cc2nccc3cc(OC)c(OC)cc23)c(N=NN(C)C)cc1OC	35.7 µM	44.8 µM	73.9 µM	22.3 µM	96.7 µM	44.1 µM	70.7 µM	28.9 µM			
OC(c1cc(C23CC4CC(CC(C4)C2)C3)nc2c(Cl)cc(Cl)cc12)C1CCCCN1 (configuration not stated)	3.29 µM	2.35 µM	3.3 µM	3.24 µM		3.23 µM		3.16 µM			
Cc1ccnc(NC(NC(=O)c2ccccc2)(C(F)(F)F)C(F)(F)F)c1	> 100 µM	> 100 µM	> 100 µM	> 100 µM	> 100 µM	> 100 µM	> 100 µM	> 100 µM			
N#Cc1c(N)nc(Sc2ccccc2N)c(C#N)c1-c1ccc(Cl)cc1	> 58.2 µM	9.64 µM	31.9 µM	45 µM	35.5 µM	> 48.5 µM	> 100 µM	13 µM			
Oc1ccc2c(c1)-c1c(c3ccccc3n1CCN1CCOCC1)CC2	> 100 µM	> 100 µM	> 100 µM	> 100 µM	95.3 µM	94.4 µM		81 µM			
CCCC(=O)OC1C(CO)OC(n2cc(F)c(=O)[nH]c2=O)C1F (configuration not stated)	> 100 µM	> 100 µM	> 100 µM	> 100 µM	> 100 µM	> 100 µM	> 100 µM	> 100 µM			
CCOC(=O)CCC(NC(=O)c1ccc(OCc2ccc3nc(-c4ccccc4)c(Cl)nc3c2)cc1)C(=O)OCC (configuration not stated)	> 31.6 µM	> 31.6 µM	> 31.6 µM	> 100 µM	> 31.6 µM	> 31.6 µM	> 31.6 µM	> 31.6 µM			
CC(=O)Nc1c(C)cc2c(nc3n2CCC3O)c1[N+](=O)[O-] (configuration not stated)	> 100 µM	> 100 µM	> 100 µM	> 100 µM	> 100 µM		> 100 µM	> 100 µM			
Nc1onc2c1Cc1c(noc1N)-c1ccccc1-2	> 100 µM	> 100 µM	> 100 µM	> 100 µM	> 100 µM	> 100 µM	> 100 µM	> 100 µM			
Cc1ccc(NC(=O)c2cc(S(=O)(=O)Nc3nc4ncccc4[nH]3)c(SSc3cc(Cl)c(C(=O)Nc4ccc(C)cc4)cc3S(=O)(=O)Nc3nc4ncccc4[nH]3)cc2Cl)cc1	> 100 µM	> 100 µM	> 100 µM	> 100 µM	> 100 µM	> 100 µM	> 100 µM	> 100 µM			
Cc1ccccc1S(=O)(=O)Nn1cnc2ccc(S(=O)(=O)Nc3ccc(Cl)cc3)cc2c1=O	> 100 µM	> 100 µM	> 100 µM	> 100 µM	> 100 µM	> 100 µM	> 100 µM	> 100 µM			
Cc1cc(S(=O)(=O)Nc2nc3ccccc3c(=O)n2N)c(S)cc1Cl	> 100 µM		> 100 µM	> 100 µM	83.4 µM	> 100 µM	> 100 µM	49.2 µM			
CCCCCCCCCCCCC(O)[C@H]1CC[C@H](C(O)CCCCCC(=O)CCCCC2CC(C(C)=O)C(=O)O2)O1 (some centres not stated)	> 100 µM	26.9 µM	19.3 µM	50.3 µM	40.4 µM	> 68.6 µM	39.4 µM	21.6 µM	2250 nM	1.87 µM	3.84 µM
O=c1/c(=C/c2ccc(-c3ccc(Cl)cc3Cl)o2)sc2n1[C@@H](c1ccc(Cl)cc1)C=C(c1cc(F)c(Cl)cc1Cl)N=2	> 100 µM	> 100 µM		> 100 µM	> 100 µM	> 100 µM	> 100 µM	> 100 µM			
COc1ccc2c(c1)CCc1c-2n(CCN2CCCCC2)c2ccc(OC)cc12	> 100 µM	> 100 µM	> 100 µM	> 100 µM	> 100 µM	> 100 µM	> 100 µM	> 100 µM			
CCOC(=O)c1c(N2CCOCC2)[nH]c(=O)c(C(c2ccco2)c2c(O)c(C(=O)OCC)c(N3CCOCC3)[nH]c2=O)c1O	> 100 µM	> 100 µM	> 100 µM	> 100 µM	> 100 µM	> 100 µM	> 100 µM	> 100 µM			
CC(C)(C)OC(=O)N1C(c2cccnc2)=CC[C@H]2C3CC=C(c4cccnc4)[C@@]3(C)CC[C@@H]21 (some centres not stated)	19.2 µM	17.3 µM	14.2 µM	30.2 µM	34.9 µM	19.7 µM	19.3 µM	8.31 µM			

Structure (SMILES)	TGI [1]	TGI [2]	TGI [3]	TGI [4]	TGI [5]	TGI [6]	TGI [7]	TGI [8]	GI50 [3]	GI50 [5]	GI50 [8]
OCCNCNc1nc(NCNCCO)nc(N(CNCCO)CNCCO)n1	44.3 µM	> 73.9 µM	58.7 µM	57.7 µM	54 µM	72.1 µM	> 65.4 µM	35.6 µM			
CN(C)c1nc(Cl)c2c(-c3ccccc3)c(-c3ccccc3)oc2n1	> 100 µM	> 100 µM		> 100 µM	> 100 µM	> 100 µM	> 100 µM	> 100 µM			
O=C(O)CN1C(=O)C(Cc2ccc(O)cc2)N=C(c2cccc(O)c2)c2ccccc21 (configuration not stated)	> 100 µM	> 100 µM	> 100 µM			> 100 µM	> 100 µM	> 100 µM			
CCCCCCCCCCNC(=O)CCC(NC(=O)c1ccc(N(C)Cc2cnc3nc(N)nc(N)c3n2)cc1)C(=O)NCCCCCCCCCC (configuration not stated)	> 70.2 µM	> 100 µM	26.8 µM	> 100 µM	> 100 µM	> 92.7 µM	> 45.4 µM	49.5 µM			
CC(=O)O[C@H]1[C@H](OC(=O)CC(C)(O)CC(=O)O)C[C@]2(C)C3=C(CCC2C1(C)C)[C@]1(C)CC[C@H]([C@H]2CC[C@H](C(C)(C)O)OC2O)[C@@]1(C)[C@@H](O)C3 (some centres not stated)	64.8 µM	25.8 µM	30.4 µM	36.7 µM	> 100 µM	63.4 µM	37.8 µM	37 µM			
CO/N=C(\C)c1cccc(Nc2c3ccccc3nc3occc23)c1	44.4 µM	31.5 µM	19 µM	19.2 µM	15.6 µM	48.8 µM	18 µM	22.5 µM			
CC(=O)OCc1ccc2oc(=O)c(C(=O)Oc3ccccc3)cc2c1	> 100 µM	> 100 µM	> 100 µM	38.5 µM	> 100 µM	62.8 µM	> 100 µM	38.6 µM			
COC(=O)C1OC(O[C@H]2CC[C@]3(C)[C@H]4CC=C5[C@@H]6CC(C)(C)CC[C@]6(C(=O)OC6OCC(O)C(O)C6OC6OC(C)C(OC7OCC(O)C(O)C7O)C(O)C6O)CC[C@@]5(C)[C@]4(C)CC[C@H]3C2(C)C)C(O)C(O)C1O (some centres not stated)	33.7 µM and 47.8 µM	26.5 µM and 36 µM	97.6 µM and > 100 µM	25.9 µM and 34.9 µM	> 100 µM		34.3 µM and 29.8 µM	32 µM and 32.5 µM		24 µM and > 100 µM	
NC(N)=Nc1ccc(CC(N)C(=O)O)cc1 (configuration not stated)	> 12.5 µM	> 12.5 µM	> 12.5 µM	> 12.5 µM	> 12.5 µM	> 12.5 µM	> 12.5 µM	> 12.5 µM			
N#C/C(N)=C(\C#N)NC(=O)C(=O)N/C(C#N)=C(\N)C#N	> 100 µM	> 100 µM	> 100 µM	> 100 µM	> 100 µM	> 100 µM	> 100 µM	> 100 µM			
O=C(NNC(=S)NC1CCCCC1)c1csc(NC(=S)NC2CCCCC2)n1	> 100 µM	11.2 µM	16.9 µM	24.2 µM	13.3 µM	> 100 µM		22.6 µM			
CCOC(=O)NC(Nc1ccc(C(=O)OCC)cc1)(C(F)(F)F)C(F)(F)F	> 100 µM	> 100 µM	> 100 µM		> 100 µM	> 100 µM	> 100 µM	> 100 µM			
COc1cc(/C=C/C(=O)C2(C(=O)/C=C/c3cc(OC)c(OC)c(OC)c3)CCCCC2)cc(OC)c1OC	> 100 µM	> 100 µM	58.4 µM	> 100 µM	> 100 µM	> 100 µM	> 100 µM	53.8 µM			
COc1ccc(C(=O)/C=C/c2cc(O)c(O)c(F)c2F)c(OC)c1	> 100 µM	> 100 µM	85.5 µM	> 100 µM	67.7 µM	88 µM	> 100 µM	42.8 µM			
COc1cc(CNNC(N)=S)cc(OC)c1OC	> 100 µM	> 100 µM	> 100 µM	> 100 µM	> 100 µM	> 100 µM					
Nn1c(Cc2ccc([N+](=O)[O-])cc2)n[nH]c1=O	> 100 µM	> 100 µM	> 100 µM	> 100 µM	> 100 µM		> 100 µM	> 100 µM			
COc1cc(/C=c2\sc3n(c2=O)C(c2ccc(Cl)cc2)C2=C(CCCC2C)N=3)cc(OC)c1OC (configuration not stated)	> 100 µM	> 100 µM		> 100 µM		> 100 µM		> 100 µM			
Cc1nc2c(=O)n(C)ncc2[nH]1	> 100 µM	> 100 µM	> 100 µM	> 100 µM	> 100 µM	> 100 µM		> 100 µM			
NC(=S)N/N=C\c1nccc2ccccc12	> 100 µM	3.63 µM	> 100 µM		1.13 µM	39.8 µM	1.2 µM	0.538 µM			
COc1ccc(SCc2cc(OCc3ccccc3)c(OCc3ccccc3)c(OCc3ccccc3)c2)cc1	3.13 µM	3.18 µM	3.04 µM	3.02 µM	3.38 µM	3.32 µM	3.25 µM				
C=C1C2C[C@@H]3O[C@H]4C[C@H]5O[C@@]6(C[C@@H]7O[C@]8(C[C@H](C)[C@@H]9O[C@@H]%10CC(CO)O[C@@H]%10C[C@@H]9O8)C[C@H](C)[C@@H]7O6)C[C@H]5O[C@H]4[C@H](C)[C@H]3OC(=O)C[C@H]3CC[C@@H]4OC5[C@H]6O[C@]7(CC[C@H]8CC(=C)[C@H](CC[C@@H](C[C@H]1C)O2)O8)CC6O[C@@H]5[C@@H](O7)[C@H]4O3 (some centres not stated)		> 1 µM	> 1 µM	> 1 µM	> 1 µM	> 1 µM	> 1 µM	> 1 µM			
C=C1CCC([N+](=O)[O-])[C@](C)(N=O)CC[C@@H]2C1CC2(C)C (some centres not stated)	> 100 µM	31.7 µM	56.3 µM	> 100 µM	82 µM	76.1 µM	84.6 µM				
C=CC(Cl)(CBr)CCC(Br)C(C)(C)Cl (configuration not stated)	42.8 µM	29.3 µM	33.2 µM		49.8 µM	38.6 µM	34.1 µM	30.5 µM			
